pIC50: −log10 of the molar value.
Tests used:
BRD4(49-170) bromodomain = BRD4(49-170) bromodomain (Homo sapiens (Human), UniProt O60885); test: BRD4 AlphaScreen Assay; details: binding to biotin-H4(1-21) Ac-K5/8/12/16
In short: (§1)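 AlphaScreen binding of GST-bromodomain to biotin-H4(1-21) Ac-K5/8/12/16: 5 nM CBP with 20 nM peptide, or 2.5 nM BRD4 with 10 nM peptide, in 50 mM HEPES 7.5, […], 1 mM TCEP, 0.003% Tween-20. Compound preincubated 30 min, then beads 2 h, room temperature. IC50 from variable-slope fit.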

[1] = biological target: GST-CBP(1081-1197) bromodomain (Homo sapiens (Human), UniProt Q92793); test: CBP AlphaScreen Assay; details: binding to biotin-H4(1-21) Ac-K5/8/12/16
GST-CBP(1081-1197) bromodomain, sequence (Q92793 1081-1197): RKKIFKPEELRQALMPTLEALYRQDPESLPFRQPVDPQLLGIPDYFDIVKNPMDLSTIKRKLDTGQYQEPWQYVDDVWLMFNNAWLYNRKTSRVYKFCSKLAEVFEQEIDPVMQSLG
In short: as §1

For `CC1C(=O)N(C)Cc2c(-c3cccc4nc(-c5cnn(C)c5)c(C#N)cc34)nc(C3CC3)n21` (single isomer, unassigned) [Example 56a, 5-(3-cyclopropyl-5,7-dimethyl-6-oxo-5,6,7,8-tetrahydroimidazo[1,5-a]pyrazin-1-yl)-2-(1-methyl-1H-pyrazol-4-yl)quinoline-3-carbonitrile], the pIC50 (BRD4(49-170) bromodomain) was 4.60 and the pIC50 [1] was 6.37.
With `CNC(=O)N1CC(c2nc(-c3cccc4nc(-c5cnn(C)c5)c(C(F)F)cc34)c3n2C(C)C(=O)N(C)C3)C1` (centres unmarked) [Example 24, 3-(1-(3-(Difluoromethyl)-2-(1-methyl-1H-pyrazol-4-yl)quinolin-5-yl)-5,7-dimethyl-6-oxo-5,6,7,8-tetrahydroimidazo[1,5-a]pyrazin-3-yl)-N-methylazetidine-1-carboxamide] the pIC50 (BRD4(49-170) bromodomain) was 5.31 and the pIC50 [1] was 7.09.
`CC1C(=O)N(C)Cc2c(-c3cccc4nc(-c5cnn(C)c5)c(C(F)F)cc34)nc(C3CN(CCF)C3)n21` (centres unmarked) [Example 25, 1-(3-(Difluoromethyl)-2-(1-methyl-1H-pyrazol-4-yl)quinolin-5-yl)-3-(1-(2-fluoroethyl)azetidin-3-yl)-5,7-dimethyl-7,8-dihydroimidazo[1,5-a]pyrazin-6(5H)-one] gave a pIC50 (BRD4(49-170) bromodomain) of 4.94 and a pIC50 [1] of 7.59.
Molecule `C[C@H]1C(=O)N(C)Cc2c(-c3cccc4nc(-c5cnn(C)c5)c(C(F)F)cc34)nc(C3CC3)n21` [Example 110a, (S)-3-cyclopropyl-1-(3 (difluoromethyl)-2-(1-methyl-1H-pyrazol-4-yl)quinolin-5-yl)-5,7-dimethyl-7,8-dihydroimidazo[1,5-a] pyrazin-6(5H)-one] has a pIC50 (BRD4(49-170) bromodomain) of 5.03 and a pIC50 [1] of 6.34.
With `Cn1cc(-c2cc3cccc(-c4nc(C5CC5)n5c4CN(CCF)C(=O)C5)c3cn2)cn1` [Example 7, 3-Cyclopropyl-7-(2-fluoroethyl)-1-(3-(1-methyl-1H-pyrazol-4-yl)isoquinolin-8-yl)-7,8-dihydroimidazo[1,5-a]pyrazin-6(5H)-one] the pIC50 (BRD4(49-170) bromodomain) was 5.30 and the pIC50 [1] was 7.72.
`CC1C(=O)N(C)Cc2c(-c3c(F)ccc4cc(-c5ccn(C)n5)ncc34)nc(C3CCOCC3)n21` (single isomer, unassigned) [Example 90a, 1-(7-fluoro-3-(1-methyl-1H-pyrazol-3-yl)isoquinolin-8-yl)-5,7-dimethyl-3-(tetrahydro-2H-pyran-4-yl)-7,8-dihydroimidazo[1,5a] pyrazin-6(5H)-one] was tested, and the pIC50 (BRD4(49-170) bromodomain) was 4.60 and the pIC50 [1] was 6.00.
For `CN1Cc2c(-c3cccc4nc(-c5cnn(C)c5)c(C#N)cc34)nc(C3CCOCC3)n2CC1=O` [Example 92, 2-(1-methyl-1H-pyrazol-4-yl)-5-(7-methyl-6-oxo-3-(tetrahydro-2H-pyran-4-yl)-5,6,7,8-tetrahydroimidazo[1,5-a]pyrazin-1-yl)quinoline-3-carbonitrile], the pIC50 (BRD4(49-170) bromodomain) was 4.60 and the pIC50 [1] was 7.20.
`Cc1nn(C)cc1-c1cc2ccc(F)c(-c3nc(C4CCOCC4)n4c3CN(C)C(=O)C4)c2cn1` [Example 97, 1-(3-(1,3-dimethyl-1H-pyrazol-4-yl)-7-fluoroisoquinolin-8-yl)-7-methyl-3-(tetrahydro-2H-pyran-4-yl)-7,8-dihydroimidazo[1,5-a] pyrazin-6(5H)-one] gave a pIC50 (BRD4(49-170) bromodomain) of 4.60 and a pIC50 [1] of 6.49.
With `CCN1Cc2c(N3CCCc4cc(-c5cnn(C)c5)c(C(F)F)cc43)nc(C3CC3)n2CC1=O` [Example 4, 3-Cyclopropyl-1-(7-(difluoromethyl)-6-(1-methyl-1H-pyrazol-4-yl)-3,4-dihydroquinolin-1(2H)-yl)-7-ethyl-7,8-dihydroimidazo[1,5-a]pyrazin-6(5H)-one] the pIC50 (BRD4(49-170) bromodomain) was 4.75 and the pIC50 [1] was 8.22.
Work on `Cc1ncc(-c2cc3ccc(F)c(-c4nc(C5CCOCC5)n5c4CN(C)C(=O)C5C)c3cn2)s1` (single isomer, unassigned) [Example 37a, 1-(7-Fluoro-3-(2-methylthiazol-5-yl)isoquinolin-8-yl)-5,7-dimethyl-3-(tetrahydro-2H-pyran-4-yl)-7,8-dihydroimidazo[1,5-a]pyrazin-6(5H)-one] yielded a pIC50 (BRD4(49-170) bromodomain) of 6.67 and a pIC50 [1] of 9.00.
In the case of `CC1C(=O)N(C)Cc2c(-c3cccc4cc(N5CCOCC5)ncc34)nc(C3CCOCC3)n21` (single isomer, unassigned) [Example 16b, 5,7-Dimethyl-1-(3-morpholinoisoquinolin-8-yl)-3-(tetrahydro-2H-pyran-4-yl)-7,8-dihydroimidazo[1,5-a]pyrazin-6(5H)-one], the pIC50 (BRD4(49-170) bromodomain) was 6.45 and the pIC50 [1] was 8.52.
In the case of `Cc1ncc(-c2nc3cccc(-c4nc(C5CC5)n5c4CN(C)C(=O)C5C)c3cc2C(F)F)s1` (centres unmarked) [Example 68, 3-cyclopropyl-1-(3-(difluoromethyl)-2-(2-methylthiazol-5-yl)quinolin-5-yl)-5,7-dimethyl-7,8-dihydroimidazo[1,5-a] pyrazin-6(5H)-one], the pIC50 (BRD4(49-170) bromodomain) was 6.79 and the pIC50 [1] was 8.30.
For `CC1C(=O)N(C)Cc2c(-c3cccc4nc(-c5cnn(C)c5)c(C(F)(F)F)cc34)nc(C3CCOCC3)n21` (single isomer, unassigned) [Example 26a, 5,7-Dimethyl-1-(2-(1-methyl-1H-pyrazol-4-yl)-3-(trifluoromethyl)quinolin-5-yl)-3-(tetrahydro-2H-pyran-4-yl)-7,8-dihydroimidazo[1,5-a]pyrazin-6(5H)-one], the pIC50 (BRD4(49-170) bromodomain) was 6.71 and the pIC50 [1] was 8.70.
`CN1Cc2c(N3CCCc4cc(-c5cnn(C)c5)c(C(F)F)cc43)nc(C3CC3)n2CC1=O` [Example 106, 3-cyclopropyl-1-(7-(difluoromethyl)-6-(1-methyl-1H-pyrazol-4-yl)-3,4-dihydroquinolin-1(2H)-yl)-7-methyl-7,8-dihydroimidazo[1,5-a] pyrazin-6(5H)-one] was tested, and the pIC50 (BRD4(49-170) bromodomain) was 5.24 and the pIC50 [1] was 8.05.
`Cc1nn(C)cc1-c1nc2cccc(-c3nc(C4CC4)n4c3CN(C)C(=O)C4C)c2cc1C(F)F` (centres unmarked) [Example 65, 3-cyclopropyl-1-(3-(difluoromethyl)-2-(1,3-dimethyl-1H-pyrazol-4-yl)quinolin-5-yl)-5,7-dimethyl-7,8-dihydroimidazo[1,5-a] pyrazin-6(5H)-one] was tested, and the pIC50 (BRD4(49-170) bromodomain) was 6.37 and the pIC50 [1] was 7.77.
In the case of `CC1C(=O)N(C)Cc2c(-c3ccn4cncc4c3)nc(C3CC3)n21` (centres unmarked) [Example 57, 3-cyclopropyl-1-(imidazo[1,5-a]pyridin-7-yl)-5,7-dimethyl-7,8-dihydroimidazo[1,5-a] pyrazin-6(5H)-one], the pIC50 (BRD4(49-170) bromodomain) was 5.58 and the pIC50 [1] was 5.97.
Molecule `CC1C(=O)N(C)Cc2c(-c3cccc4nc(-c5cnn(C)c5)c(C(F)F)cc34)nc(C3CN(S(C)(=O)=O)C3)n21` (centres unmarked) [Example 20, 1-(3-(Difluoromethyl)-2-(1-methyl-1H-pyrazol-4-yl)quinolin-5-yl)-5,7-dimethyl-3-(1-(methylsulfonyl)azetidin-3-yl)-7,8-dihydroimidazo[1,5-a]pyrazin-6(5H)-one] has a pIC50 (BRD4(49-170) bromodomain) of 5.07 and a pIC50 [1] of 7.43.
`CC1C(=O)N(C)Cc2c(-c3cccc4nc(-c5cnn(C)c5)c(C(F)F)cc34)nc(C3(C)CCOCC3)n21` (single isomer, unassigned) [Example 32b, 1-(3-(Difluoromethyl)-2-(1-methyl-1H-pyrazol-4-yl)quinolin-5-yl)-5,7-dimethyl-3-(4-methyltetrahydro-2H-pyran-4-yl)-7,8-dihydroimidazo[1,5-a]pyrazin-6(5H)-one] gave a pIC50 (BRD4(49-170) bromodomain) of 6.45 and a pIC50 [1] of 8.70.
In the case of `CC1C(=O)N(C)Cc2c(-c3c(F)ccc4cc(C5CCOCC5)ncc34)nc(C3CCOCC3)n21` (single isomer, unassigned) [Example 34a, 1-(7-Fluoro-3-(tetrahydro-2H-pyran-4-yl)isoquinolin-8-yl)-5,7-dimethyl-3-(tetrahydro-2H-pyran-4-yl)-7,8-dihydroimidazo[1,5-a]pyrazin-6(5H)-one], the pIC50 (BRD4(49-170) bromodomain) was at most 4.60 and the pIC50 [1] was 5.61.
With `Cc1cnn(-c2cc3cccc(-c4nc(C5CC5)n5c4CN(C)C(=O)C5C)c3cn2)c1` (centres unmarked) [Example 14, 3-Cyclopropyl-5,7-dimethyl-1-(3-(4-methyl-1H-pyrazol-1-yl)isoquinolin-8-yl)-7,8-dihydroimidazo[1,5-a]pyrazin-6(5H)-one] the pIC50 (BRD4(49-170) bromodomain) was 6.36 and the pIC50 [1] was 8.52.
`Cc1nn(C)cc1-c1cc2cccc(-c3nc(C4CCOCC4)n4c3CN(C)C(=O)C4)c2cn1` [Example 96, 1-(3-(1,3-dimethyl-1H-pyrazol-4-yl)isoquinolin-8-yl)-7-methyl-3-(tetrahydro-2H-pyran-4-yl)-7,8-dihydroimidazo[1,5-a] pyrazin-6(5H)-one] showed a pIC50 (BRD4(49-170) bromodomain) of 4.90 and a pIC50 [1] of 6.74.
`CC1C(=O)N(C)Cc2c(N3CCCc4cc(-c5cnn(C)c5)c(C(F)F)cc43)nc(C3CC3)n21` (centres unmarked) [Example 49, 3-cyclopropyl-1-(7-(difluoromethyl)-6-(1-methyl-1H-pyrazol-4-yl)-3,4-dihydroquinolin-1(2H)-yl)-5,7-dimethyl-7,8-dihydroimidazo[1,5-a] pyrazin-6(5H)-one] showed a pIC50 (BRD4(49-170) bromodomain) of 6.48 and a pIC50 [1] of 9.00.
`CC1C(=O)N(C)Cc2c(-c3cccc4cc(C5=CCOCC5)ncc34)nc(C3CC3)n21` (stereo not drawn) [Example 55, 3-cyclopropyl-l-(3-(3,6-dihydro-2H-pyran-4-yl)isoquinolin-8-yl)-5,7-dimethyl-7,8-dihydroimidazo[1,5-a] pyrazin-6(5H)-one] gave a pIC50 (BRD4(49-170) bromodomain) of 6.41 and a pIC50 [1] of 8.70.
Work on `CC1C(=O)N(C)Cc2c(-c3cccc4cc(-c5ccn(C)n5)ncc34)nc(C3CCOCC3)n21` (centres unmarked) [Example 85, 5,7-dimethyl-1-(3-(1-methyl-1H-pyrazol-3-yl)isoquinolin-8-yl)-3-(tetrahydro-2H-pyran-4-yl)-7,8-dihydroimidazo[1,5-a] pyrazin-6(5H)-one] yielded a pIC50 (BRD4(49-170) bromodomain) of 4.62 and a pIC50 [1] of 7.11.
With `Cc1cn(-c2cc3cccc(-c4nc(C5CC5)n5c4CN(C)C(=O)C5C)c3cn2)nc1C` (centres unmarked) [Example 72, 3-cyclopropyl-1-(3-(3,4-dimethyl-1H-pyrazol-1-yl)isoquinolin-8-yl)-5,7-dimethyl-7,8-dihydroimidazo[1,5-a] pyrazin-6(5H)-one] the pIC50 (BRD4(49-170) bromodomain) was 6.53 and the pIC50 [1] was 8.70.

From patent publication US10899769B2, “Imidazopiperazinone inhibitors of transcription activating proteins” (Board of Regents, The University of Texas System, priority 2018, dated 2021)
